The record followed here is patent EP2757103B1, “PYRROLIDINE-3-YLACETIC ACID DERIVATIVE” (Eisai R&D Management Co., Ltd., priority 2011, dated 2013).

The target of this experiment is T1, CX3CR1 (Homo sapiens, UniProt P49238).
T1 construct: expressed in transfected cells; host or cells: B300 cells
T1 sequence (P49238 1-355): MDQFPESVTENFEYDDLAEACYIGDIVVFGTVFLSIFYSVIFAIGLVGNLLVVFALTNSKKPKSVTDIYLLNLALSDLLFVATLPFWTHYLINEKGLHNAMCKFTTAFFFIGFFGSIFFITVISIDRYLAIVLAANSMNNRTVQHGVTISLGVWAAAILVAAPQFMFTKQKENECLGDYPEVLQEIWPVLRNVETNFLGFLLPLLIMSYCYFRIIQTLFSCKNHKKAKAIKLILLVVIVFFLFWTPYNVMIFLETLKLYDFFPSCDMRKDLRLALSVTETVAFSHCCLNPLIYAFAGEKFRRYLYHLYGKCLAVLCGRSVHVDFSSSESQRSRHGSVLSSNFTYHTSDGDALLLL
The experiment can be described thus: Inhibition of cell migration in fractalkine-induced chemotaxis assay. It counts as cell-based. The note with it: fractalkine-induced (0.3 nM) migration of CX3CR1-expressing B300 cells; preincubated with test compound for 30 minutes; Transwell, 3.5 hours at 37°C. The procedure: The inhibitory effects of the example compounds on fractalkine-induced cell migration were examined using CX3CR1-transfected B300 cells
After equilibrating the Transwell plate (24-well clusters, pore size: 5 µm, manufactured by Corning Incorporated), a fractalkine solution (0.3 nM, manufactured by R&D Systems, Inc.) was added to the lower wells. CX3CR1-expressing B300 cells which were preincubated with the test compound (0.001, 0.003, 0.01 or 0.03 µM) for 30 minutes were placed in the upper layer wells, followed by incubation under the condition of 5% CO2 for 3.5 hours at 37°C. The number of cells migrated to the lower wells was evaluated using CellTiter (manufactured by Promega Corporation).
The inhibitory rate of the test compound on fractalkine-induced cell migration was calculated by the following formula, where [A] is the number of migrated cells in the presence of both fractalkine and the test compound, [B] is the number of migrated cells in the presence of fractalkine and in the absence of the test compound, and [C] is the number of migrated cells in the absence of both fractalkine and the test compound; the 50% inhibitory concentration (IC50) was calculated based on the inhibitory rate. Inhibitory rate (%) = [1-{(A-C)/(B-C)}] × 100

Turning to `CCCC(F)CN1CCC(NC(=O)[C@]2(CC(=O)O)CN(Cc3c(Cl)cccc3C(F)(F)F)C[C@@H]2C)CC1` (stereo partly drawn) [Example 1, 2-[(3S,4R)-1-{[2-chloro-6-(trifluoromethyl)phenyl]methyl}-3-{[1-(2-fluoropentyl)piperidin-4-yl]carbamoyl}-4-methylpyrrolidin-3-yl]acetic acid], it took 13 nM to reach half-maximal inhibition (IC50). In other words, the double-digit nanomolar range. On to `C[C@H]1CN(Cc2c(Cl)cccc2C(F)F)C[C@@]1(CC(=O)O)C(=O)NC1CCN(CC2=CCCC2)CC1` [Example 13, 2-[(3S,4R)-1-{[2-Chloro-6-(difluoromethyl)phenyl]methyl}-3-{[1-(cyclopent-1-en-1-ylmethyl)piperidin-4-yl]carbamoyl}-4-methylpyrrolidin-3-yl]acetic acid], for which the half-maximal inhibitory concentration (IC50) (in general, the concentration that gives 50% inhibition) was found to be 16 nM. `C[C@H]1CN(Cc2c(Cl)cccc2C(F)(F)F)C[C@@]1(CC(=O)O)C(=O)NC1CCN(CC2=CCCC2)CC1` [Example 7, 2-[(3S,4R)-1-{[2-Chloro-6-(trifluoromethyl)phenyl]methyl}-3-{[1-(cyclopent-1-en-1-ylmethyl)piperidin-4-yl]carbamoyl}-4-methylpyrrolidin-3-yl]acetic acid] yielded an IC50 of 5 nM. In turn, `C[C@H]1CN(Cc2c(Cl)cccc2Cl)C[C@@]1(CC(=O)O)C(=O)NC1CCN(CC2CCC(F)(F)CC2)CC1` [Example 2, 2-[(3S,4R)-1-[(2,6-Dichlorophenyl)methyl]-3-({1-[(4,4-difluorocyclohexyl)methyl]piperidin-4-yl}carbamoyl)-4-methylpyrrolidin-3-yl]acetic acid] returned a concentration for half-maximal inhibition (IC50) of 21 nM. The same measure for `C[C@H]1CN(Cc2c(Cl)cccc2C(F)(F)F)C[C@@]1(CC(=O)O)C(=O)NC1CCN(CC2=CCCCC2)CC1` [Example 3, 2-[(3S,4R)-1-{[2-Chloro-6-(trifluoromethyl)phenyl]methyl}-3-{[1-(cyclohex-1-en-1-ylmethyl)piperidin-4-yl]carbamoyl}-4-methylpyrrolidin-3-yl]acetic acid]: 4 nM.

`CCCCCCN1CCC(NC(=O)[C@]2(CC(=O)O)CN(Cc3c(Cl)cccc3C(F)F)C[C@@H]2C)CC1` [Example 10, 2-[(3S,4R)-1-{[2-Chloro-6-(difluoromethyl)phenyl]methyl}-3-[(1-hexylpiperidin-4-yl)carbamoyl]-4-methylpyrrolidin-3-yl]acetic acid]: the IC50 turned out to be 14 nM. The compound `C[C@H]1CN(Cc2c(Cl)cccc2C(F)F)C[C@@]1(CC(=O)O)C(=O)NC1CCN(CC2CCCCC2)CC1` [Example 14, 2-[(3S,4R)-1-{[2-Chloro-6-(difluoromethyl)phenyl]methyl}-3-{[1-(cyclohexylmethyl)piperidin-4-yl]carbamoyl}-4-methylpyrrolidin-3-yl]acetic acid] registered an IC50 of 12 nM. The IC50 values of the last two compounds are within 1.5-fold of each other. Turning to `C[C@H]1CN(Cc2c(Cl)cccc2Cl)C[C@@]1(CC(=O)O)C(=O)N[C@H]1CCN(CC2=CCCCC2)C1` [Example 9, 2-[(3S,4R)-3-{[(3S)-1-(Cyclohex-1-en-1-ylmethyl)pyrrolidin-3-yl]carbamoyl}-1-[(2,6-dichlorophenyl)methyl]-4-methylpyrrolidin-3-yl]acetic acid], the IC50 amounted to 16 nM.

`C[C@H]1CN(Cc2c(Cl)cccc2C(F)F)C[C@@]1(CC(=O)O)C(=O)NC1CCN(CC2=CCCCC2)CC1` [Example 12, 2-[(3S,4R)-1-{[2-Chloro-6-(difluoromethyl)phenyl]methyl}-3-{[1-(cyclohex-1-en-1-ylmethyl)piperidin-4-yl]carbamoyl}-4-methylpyrrolidin-3-yl]acetic acid] showed an IC50 of 6 nM. Turning to `Cc1cccc(Cl)c1CN1C[C@H](C)[C@](CC(=O)O)(C(=O)NC2CCN(CC3=CCCCC3)CC2)C1` [Example 6, 2-[(3S,4R)-1-[(2-Chloro-6-methylphenyl)methyl]-3-{[1-(cyclohex-1-en-1-ylmethyl)piperidin-4-yl]carbamoyl}-4-methylpyrrolidin-3-yl]acetic acid], the IC50 is 11 nM.
